Assay results from article PMC7586811 (Journal of Clinical Pharmacology, 2020).
Like-named read-outs stand apart in the source and are kept apart here.

Columns and labels:
[1] = clinical use; cited from earlier work
[2] = test system: CYP3A4; conditions: human liver microsomes; ref data on file, Incyte Corporation; cited from earlier work
[3] = Safety and tolerability in healthy participants; assay type: in vivo, human; conditions: for participants who experienced TEAEs: n = 18; for TEAEs considered related to the drug: investigator assessment
[4] = not given; remark: listed apart in the source
[5] = test system: other PI3K isoforms; conditions: cited from earlier work
[6] = dose range from 5 to 45 mg, relapsed or refractory B‐cell malignancies; cited from earlier work
[7] = test system: P‐glycoprotein (P‐gp); conditions: read-out: P‐gp inhibition IC50; in vitro; ref data on file, Incyte Corporation; cited from earlier work
[8] = test system: P‐glycoprotein (P‐gp); conditions: in vitro; ref data on file, Incyte Corporation; cited from earlier work
[9] = test system: human OATP1B and OATP1B3; conditions: in vitro; ref data on file, Incyte Corporation; cited from earlier work
[10] = test system: CYP3A4; conditions: recombinant human CYP isozymes, earlier in vitro studies; cited from earlier work
[11] = test system: major CYPs; conditions: earlier in vitro studies; cited from earlier work
[12] = cited from earlier work
[13] = phase 1/2 study; cited from earlier work
[14] = concomitant itraconazole 200 mg versus parsaclisib 10 mg alone
[15] = parsaclisib 10 mg single oral dose alone, fasted, healthy participants, n = 18
[16] = concomitant rifampin 600 mg versus parsaclisib 20 mg alone
[17] = parsaclisib 20 mg single oral dose alone, fasted, healthy participants, n = 18

CC[C@H](Nc1ncnc2[nH]cnc12)c1nc2cccc(F)c2c(=O)n1-c1ccccc1 [idelalisib]
associated toxicities [1]: transaminitis (increased alanine and aspartate transaminase levels), colitis, diarrhea, and pneumonitis

CC(=O)N1CCN(c2ccc(OCC3COC(Cn4ccnc4)(c4ccc(Cl)cc4Cl)O3)cc2)CC1 (stereo not shown) [ketoconazole]
effect on parsaclisib metabolism [2]: inhibited parsaclisib metabolism

CO[C@H]1/C=C/O[C@@]2(C)Oc3c(C)c(O)c4c(O)c(c(/C=N/N5CCN(C)CC5)c(O)c4c3C2=O)NC(=O)/C(C)=C\C=C\[C@H](C)[C@H](O)[C@@H](C)[C@@H](O)[C@@H](C)[C@H](OC(C)=O)[C@@H]1C [rifampin, reference compound]
participants reporting generalized pruritus and maculopapular rash ([3]; of all 36 participants, all in cohort 2, considered related to rifampin): 5.6%

CCOc1c([C@H](C)n2nc(C)c3c(N)ncnc32)cc(Cl)c(F)c1[C@@H]1CNC(=O)C1 [Parsaclisib]
dose interruptions or reductions, discontinuations, serious AEs, deaths due to TEAEs ([3]; both cohorts): No dose interruptions or reductions, participant discontinuations, serious AEs, or deaths due to TEAEs
participants who experienced TEAEs ([3]; cohort 1: parsaclisib 10 mg + itraconazole 200 mg): 27.8%
participants with grade 4 TEAE (increased creatine phosphokinase) ([3]; cohort 2, day 44, not considered related to parsaclisib or rifampin): 5.6%
participants who experienced TEAEs ([3]; cohort 2: parsaclisib 20 mg + rifampin 600 mg): 44.4%
TEAEs considered related to the drug ([3]; healthy participants): No TEAE was considered related
participants reporting headache (most common TEAE) ([3]; of all 36 participants, all cases in cohort 2 (parsaclisib + rifampin)): 13.9%
overall safety and tolerability ([3]; single‐dose parsaclisib alone or combined with itraconazole or rifampin, healthy participants): safe and well tolerated
decrease in geometric mean CL/F [14]: approximately 51%
increase in geometric mean AUC0‐∞ [14]: 107%
increase in geometric mean Cmax [14]: 21%
prolongation of mean t½,β [14]: 59%
reduction of mean Vz/F [14]: approximately 24%
CL/F, Geometric Mean [15]: 2.9 L/h
CL/F, Mean ± SD [15]: 2.9 ± 0.3 L/h
increase in the exposure of parsaclisib (single 10‐mg dose, concomitant itraconazole): approximately 2 fold
decrease of AUC0‐∞ [4, 16]: 77%
increase in geometric mean CL/F [4, 16]: approximately 4.4 fold
reduction of Cmax [4, 16]: 43%
shortening of mean t½,β [4, 16]: 71%
CL/F, Geometric Mean [4, 17]: 2.9 L/h
CL/F, Mean ± SD [4, 17]: 3.0 ± 0.5 L/h
decrease in the exposure of parsaclisib ([4]; single 20‐mg dose, concomitant rifampin): approximately 4 fold
selectivity relative to other PI3K isoforms [5]: approximately 20 000 fold
dose‐exposure relationship at steady state [6]: linear
IC50 [7]: 18.1 µM
P‐gp substrate: concentration at which efflux transport is saturated [8]: > 100 µM
substrate of human OATP1B and OATP1B3 [9]: not likely a substrate
CYP isozyme responsible for metabolism [10]: primarily metabolized by CYP3A4
inhibition of major CYPs [11]: not an inhibitor of major CYPs tested
major metabolites in clinical plasma samples ([12]; clinical plasma samples, ref data on file, Incyte Corporation): no major metabolites were detected
human‐specific metabolite ([12]; in vitro, rat, dog, and human): no human‐specific metabolite identified
dose‐limiting toxicities [13]: no dose‐limiting toxicities identified

C[C@H](Nc1ncnc2[nH]cnc12)c1cc2cccc(Cl)c2c(=O)n1-c1ccccc1 [duvelisib]
associated toxicities [1]: transaminitis (increased alanine and aspartate transaminase levels), colitis, diarrhea, and pneumonitis

CCC(C)n1ncn(-c2ccc(N3CCN(c4ccc(OCC5COC(Cn6cncn6)(c6ccc(Cl)cc6Cl)O5)cc4)CC3)cc2)c1=O (stereo not shown) [itraconazole, Itraconazole, reference compound]
TEAEs considered related to the drug ([3]; healthy participants): No TEAE was considered related
